Test results reported in US10030020B2, “Spirocycle compounds and methods of making and using same” (Abide Therapeutics, Inc., priority 2016, dated 2018).
pIC50: −log10 of the molar value.

Key:
MAGL [1] = target: T1, MAGL (Mus musculus (Mouse), UniProt O35678); experiment: In vitro competitive activity-based protein profiling (mouse brain membrane fraction or cell lysates), MAGL band; type: biochemical; conditions: mouse proteome; for inhibition at 1 µM: read-out: MAGL % Inh 1 μM (mouse); for pIC50: competitive ABPP
Method: In Vitro Competitive Activity-Based Protein Profiling.
Proteomes (mouse brain membrane fraction or cell lysates) (50 μL, 1.0 mg/mL total protein concentration) were preincubated with varying concentrations of inhibitors at 37° C. After 30 min, FP—Rh (1.0 μL, 50 μM in DMSO) was added and the mixture was incubated for another 30 min at 37° C. Reactions were quenched with SDS loading buffer (50 μL-4×) and run on SDS-PAGE.

ABHD6 [2] = target: T2, ABHD6 (Mus musculus (Mouse), UniProt Q8R2Y0); experiment: In vitro competitive activity-based protein profiling (mouse brain membrane fraction or cell lysates), ABHD6 band; type: biochemical; conditions: mouse proteome; for inhibition at 1 µM: read-out: ABHD6 % Inh 1 μM (mouse); for pIC50: competitive ABPP
In short: (§1)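 Competitive ABPP: proteome 1.0 mg/mL protein + inhibitor, 30 min, 37° C; FP-Rh probe (stock 50 μM in DMSO) added, 30 min, 37° C; SDS quench, SDS-PAGE, fluorescent band intensity read.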

FAAH [3] = target: T3, FAAH (Mus musculus (Mouse), UniProt O08914); experiment: In vitro competitive activity-based protein profiling (mouse brain membrane fraction or cell lysates), FAAH band; type: biochemical; conditions: mouse proteome; for inhibition at 1 µM: read-out: FAAH % Inh 1 μM (mouse); for pIC50: competitive ABPP
In short: as §1

MAGL [4] = target: T1, MAGL; experiment: Mouse brain proteomes from inhibitor treated mice (oral gavage, sacrificed 4 h after administration, ABPP analysis); type: in vivo, mouse (C57Bl/6J); conditions: 5 mg/kg oral gavage
In short: (§2)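 Wild-type C57Bl/6J mice were dosed by oral gavage in vehicle (e.g. PEG400/Ethanol/PBS 7/2/1) and sacrificed 4 h later. Brain proteomes were analysed by activity-based protein profiling; values are % inhibition at 5 mg/kg.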

FAAH [5] = target: T3, FAAH; experiment: Mouse brain proteomes from inhibitor treated mice (oral gavage, sacrificed 4 h after administration, ABPP analysis), FAAH; type: in vivo, mouse (C57Bl/6J); conditions: 5 mg/kg oral gavage
In short: as §2

ABHD6 [6] = target: T2, ABHD6; experiment: Mouse brain proteomes from inhibitor treated mice (oral gavage, sacrificed 4 h after administration, ABPP analysis), ABHD6; type: in vivo, mouse (C57Bl/6J); conditions: 5 mg/kg oral gavage
In short: as §2

T3 sequence (O08914 whole entry): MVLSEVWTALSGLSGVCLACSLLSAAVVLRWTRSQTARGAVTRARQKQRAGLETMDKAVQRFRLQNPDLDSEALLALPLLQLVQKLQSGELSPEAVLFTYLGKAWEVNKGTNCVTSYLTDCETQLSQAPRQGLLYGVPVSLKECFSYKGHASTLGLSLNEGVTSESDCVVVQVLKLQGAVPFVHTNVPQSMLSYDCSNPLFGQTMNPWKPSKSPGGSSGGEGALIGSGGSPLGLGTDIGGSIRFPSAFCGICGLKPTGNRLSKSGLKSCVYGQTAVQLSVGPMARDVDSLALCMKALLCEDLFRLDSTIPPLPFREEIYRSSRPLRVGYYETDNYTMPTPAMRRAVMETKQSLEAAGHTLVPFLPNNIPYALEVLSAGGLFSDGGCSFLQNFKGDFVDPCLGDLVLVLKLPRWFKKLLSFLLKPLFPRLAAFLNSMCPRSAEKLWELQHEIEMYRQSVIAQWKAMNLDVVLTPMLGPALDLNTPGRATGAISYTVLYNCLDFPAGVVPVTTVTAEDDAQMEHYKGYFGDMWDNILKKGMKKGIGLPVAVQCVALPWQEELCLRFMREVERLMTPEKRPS
T2 sequence (Q8R2Y0 whole entry): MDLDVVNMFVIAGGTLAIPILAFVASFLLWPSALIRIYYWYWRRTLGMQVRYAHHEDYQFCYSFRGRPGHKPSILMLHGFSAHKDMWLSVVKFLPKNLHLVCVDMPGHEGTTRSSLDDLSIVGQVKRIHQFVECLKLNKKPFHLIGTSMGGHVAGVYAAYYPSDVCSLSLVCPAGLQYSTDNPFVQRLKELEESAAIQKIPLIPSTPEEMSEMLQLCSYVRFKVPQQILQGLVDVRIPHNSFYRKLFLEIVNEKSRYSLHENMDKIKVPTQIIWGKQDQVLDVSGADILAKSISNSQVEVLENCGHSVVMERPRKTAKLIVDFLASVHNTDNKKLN
T1 sequence (O35678 whole entry): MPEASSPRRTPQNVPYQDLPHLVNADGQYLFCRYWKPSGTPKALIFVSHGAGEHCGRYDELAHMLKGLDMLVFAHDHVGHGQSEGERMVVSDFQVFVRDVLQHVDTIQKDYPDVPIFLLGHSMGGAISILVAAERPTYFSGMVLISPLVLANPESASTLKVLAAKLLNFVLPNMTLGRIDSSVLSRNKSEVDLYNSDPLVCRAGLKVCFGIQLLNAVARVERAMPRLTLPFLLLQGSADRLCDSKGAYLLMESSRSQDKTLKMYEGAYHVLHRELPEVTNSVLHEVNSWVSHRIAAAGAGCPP

Compound	inhibition at 1 µM (MAGL [1])	pIC50 (MAGL [1])	inhibition at 1 µM (ABHD6 [2])	pIC50 (ABHD6 [2])	inhibition at 1 µM (FAAH [3])	pIC50 (FAAH [3])	MAGL % Inh 5 mg/kg (mouse) (MAGL [4])	FAAH % Inh 5 mg/kg (mouse) (FAAH [5])	ABHD6 % Inh 5 mg/kg (mouse) (ABHD6 [6])
CC1(C)CC2(CCN(C(=O)OC(C(F)(F)F)C(F)(F)F)CC2)CN1Cc1ccc(Cl)cc1 [Example 48, 1,1,1,3,3,3-Hexafluoropropan-2-yl 2-(4-chlorobenzyl)-3,3-dimethyl-2,8-diazaspiro[4.5]decane-8-carboxylate]	> 75%	> 7.00	≥ 75%	6.00 to 7.00	< 25%	< 6.00	### (### is ≥75%)	# (# is <25%)	## (## is equal to or greater than 25% but less than 75%)
CC1(C)CC2(CCN(C(=O)OC(C(F)(F)F)C(F)(F)F)CC2)CN1Cc1ccc(Cl)cc1N1CCOCC1 [Example 50, 1,1,1,3,3,3-Hexafluoropropan-2-yl 2-(4-chloro-2-morpholinobenzyl)-3,3-dimethyl-2,8-diazaspiro[4.5]decane-8-carboxylate]	> 75%	> 7.00	25 to 75%	< 6.00	< 25%	< 6.00	## (## is equal to or greater than 25% but less than 75%)	# (# is <25%)	# (# is <25%)
CC1(C)CC2(CCN(C(=O)OC(C(F)(F)F)C(F)(F)F)CC2)CN1Cc1ccc(C(F)(F)F)cc1N1CCOCC1 [Example 51, 1,1,1,3,3,3-Hexafluoropropan-2-yl 3,3-dimethyl-2-(2-morpholino-4-(trifluoromethyl)benzyl)-2,8-diazaspiro[4.5]decane-8-carboxylate]	> 75%	> 7.00	< 25%	< 6.00	< 25%	< 6.00	## (## is equal to or greater than 25% but less than 75%)	# (# is <25%)	# (# is <25%)
CC1(C)CC2(CCN(C(=O)OC(C(F)(F)F)C(F)(F)F)CC2)CN1Cc1ccc(C(F)(F)F)cc1N1CCC2(CCOCC2)C1 [Example 52, 1,1,1,3,3,3-Hexafluoropropan-2-yl 2-(2-(8-oxa-2-azaspiro[4.5]decan-2-yl)-4-(trifluoromethyl)benzyl)-3,3-dimethyl-2,8-diazaspiro[4.5]decane-8-carboxylate]	> 75%	> 7.00	< 25%	< 6.00	< 25%	< 6.00	# (# is <25%)	# (# is <25%)	# (# is <25%)
CC1(C)CC2(CCN(C(=O)OC(C(F)(F)F)C(F)(F)F)CC2)CN1Cc1cccc(Cl)c1N1CCOCC1 [Example 54, 1,1,1,3,3,3-Hexafluoropropan-2-yl 2-(3-chloro-2-morpholinobenzyl)-3,3-dimethyl-2,8-diazaspiro[4.5]decane-8-carboxylate]	> 75%	> 7.00	< 25%	< 6.00	< 25%	< 6.00	## (## is equal to or greater than 25% but less than 75%)	# (# is <25%)	# (# is <25%)
O=C(OC(C(F)(F)F)C(F)(F)F)N1CCC2(CCCN2Cc2ccccc2Cl)CC1 [Example 60, 1,1,1,3,3,3-Hexafluoropropan-2-yl 1-(2-chlorobenzyl)-1,8-diazaspiro[4.5]decane-8-carboxylate]	> 75%	> 7.00	< 25%	< 6.00	< 25%	< 6.00	### (### is ≥75%)	## (## is equal to or greater than 25% but less than 75%)	# (# is <25%)
O=C(OC(C(F)(F)F)C(F)(F)F)N1CCC2(CCCN2Cc2cccc(Cl)c2)CC1 [Example 61, 1,1,1,3,3,3-Hexafluoropropan-2-yl 1-(3-chlorobenzyl)-1,8-diazaspiro[4.5]decane-8-carboxylate]	> 75%	> 7.00	25 to 75%	< 6.00	25 to 75%	< 6.00	### (### is ≥75%)	### (### is ≥75%)	# (# is <25%)
O=C(OC(C(F)(F)F)C(F)(F)F)N1CCC2(CCCN2Cc2ccc(Cl)cc2)CC1 [Example 62, 1,1,1,3,3,3-Hexafluoropropan-2-yl 1-(4-chlorobenzyl)-1,8-diazaspiro[4.5]decane-8-carboxylate]	> 75%	> 7.00	< 25%	< 6.00	< 25%	< 6.00	### (### is ≥75%)	## (## is equal to or greater than 25% but less than 75%)	## (## is equal to or greater than 25% but less than 75%)
O=C(OC(C(F)(F)F)C(F)(F)F)N1CCC2(CCN(Cc3cccc(Cl)c3N3CCC(F)(F)CC3)C2)CC1 [Example 64, 1,1,1,3,3,3-Hexafluoropropan-2-yl 2-(3-chloro-2-(4,4-difluoropiperidin-1-yl)benzyl)-2,8-diazaspiro[4.5]decane-8-carboxylate]	> 75%	> 7.00	< 25%	< 6.00	< 25%	< 6.00	## (## is equal to or greater than 25% but less than 75%)	# (# is <25%)	# (# is <25%)
O=C(OC(C(F)(F)F)C(F)(F)F)N1CCC2(CCN(Cc3cccc(Cl)c3N3CCC(F)CC3)C2)CC1 [Example 65, 1,1,1,3,3,3-Hexafluoropropan-2-yl 2-(3-chloro-2-(4-fluoropiperidin-1-yl)benzyl)-2,8-diazaspiro[4.5]decane-8-carboxylate]	> 75%	> 7.00	25 to 75%	< 6.00	< 25%	< 6.00	## (## is equal to or greater than 25% but less than 75%)	# (# is <25%)	## (## is equal to or greater than 25% but less than 75%)
O=C(OC(C(F)(F)F)C(F)(F)F)N1CCC2(CCCN2Cc2ccc(C(F)(F)F)cc2N2CCCC2)CC1 [Example 66, 1,1,1,3,3,3-Hexafluoropropan-2-yl 1-(2-(pyrrolidin-1-yl)-4-(trifluoromethyl)benzyl)-1,8-diazaspiro[4.5]decane-8-carboxylate]	> 75%	> 7.00	< 25%	< 6.00	< 25%	< 6.00	## (## is equal to or greater than 25% but less than 75%)	# (# is <25%)	# (# is <25%)
O=C(OC(C(F)(F)F)C(F)(F)F)N1CCC2(CCCN2Cc2ccc(C(F)(F)F)cc2N2CCOCC2)CC1 [Example 67, 1,1,1,3,3,3-Hexafluoropropan-2-yl 1-(2-morpholino-4-(trifluoromethyl)benzyl)-1,8-diazaspiro[4.5]decane-8-carboxylate]	> 75%	> 7.00	< 25%	< 6.00	< 25%	< 6.00	### (### is ≥75%)	# (# is <25%)	# (# is <25%)
CCN1CCCc2cccc(CN3CCC4(CCN(C(=O)OC(C(F)(F)F)C(F)(F)F)CC4)C3)c21 [Example 71, 1,1,1,3,3,3-Hexafluoropropan-2-yl 2-((1-ethyl-1,2,3,4-tetrahydroquinolin-8-yl)methyl)-2,8-diazaspiro[4.5]decane-8-carboxylate]	> 75%	> 7.00	25 to 75%	< 6.00	< 25%	< 6.00	### (### is ≥75%)	# (# is <25%)	## (## is equal to or greater than 25% but less than 75%)
O=C(OC(C(F)(F)F)C(F)(F)F)N1CCC2(CCN(Cc3ccc(C(F)(F)F)cc3N3CCCC3)C2)CC1 [Example 72, 1,1,1,3,3,3-Hexafluoropropan-2-yl 2-(2-(pyrrolidin-1-yl)-4-(trifluoromethyl)benzyl)-2,8-diazaspiro[4.5]decane-8-carboxylate]	> 75%	> 7.00	< 25%	< 6.00	< 25%	< 6.00	## (## is equal to or greater than 25% but less than 75%)	# (# is <25%)	# (# is <25%)
